Data on one molecule can be found in patent US10550094B2, “Compounds having antioxidant activity against free radicals and anti-inflammatory activity, and corresponding pharmaceutical or cosmetic compositions for skin care” (GIULIANI S.P.A., priority 2015, dated 2020).

The test is described as follows: HORAC Hydroxyl radical antioxidant capacity assay. The source says:
HORAC Assay: Hydroxyl Antioxidant Capacity In Vitro
The commercial kit “Oxiselect Hydroxyl Radical Antioxidant Capacity (HORAC) activity assay” (Cell Biolabs).
The HORAC assay esxpresses the compound antiradical capacity towards the hydroxyl radical OH′ and is based on the oxidation of a fluorescent probe by hydroxyl radicals through a hydrogen transfer process (HAT). Hydroxyl radicals are produced by a radical initiator hydroxyl and by Fenton's reagent, which quenches the fluorescent probe over time. The antioxidants present in the sample block the oxidation by the hydroxyl radical of the fluorescent probe until the antioxidant activity in the sample runs out. The remaining hydroxyl radicals destroy the fluorescence of the fluorescent probe. The antioxidant capacity of the sample is related to the fluorescence decay curve, which usually is represented as the area under the curve (AUC). The AUC is used to quantify the total antioxidant activity of the hydroxyl radical in a sample and is compared to the curve of an antioxidant standard.
The compounds of the invention were tested at the following concentrations: 13.5 μM; 27 μM, 13.5 mM; 27 mM.
For comparison purposes, also samples of the compound monofurfurylidene-2.4-sorbitol defined below by the acronym ARGB11, were in this case tested under the same two concentrations, as a reference compound according to EP0345362 mentioned above as the background art of substances with free radical inhibition activity.

Consider `OC[C@@H](O)[C@H]1OC(c2ccco2)O[C@@H](CO)[C@H]1O` (stereo partly shown) [ARGB11, monofurfurylidene-2.4-sorbitol, reference compound], for which the “HORAC (Hydroxyl Radical Antioxidant Capacity)” value runs as follows: (13.5 μM) 31.04 μMole GAE/L; (27 μM) 40.110 μMole GAE/L; (13.5 mM) 308.497 μMole GAE/L; (27 mM) 408.795 μMole GAE/L.
